System: K86415-001-R-J1-PDC complex spheroids, viability
Assay: Anticancer human tumor K86415-001-R-J1-PDC patient-derived lung adenocarcinoma cell line growth inhibition [RAS]
Settings: for IC50: curve of first compound; for viability, T/C: stronger effect = lower value
Procedure, shortened: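 Agents were tested in combination matrices in half-log decrements from a top concentration at or near clinical Cmax (10 microM if undetermined). Targets were multi-cell spheroids of tumour lines plus HUVEC and MSC stromal cells.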

[1] = second compound 0.000949 µM, first compound 0.0316 µM
[2] = second compound 0.000949 µM, first compound 0.1 µM
[3] = second compound 0.000949 µM, first compound 0.316 µM
[4] = second compound 0.000949 µM, first compound 1 µM
[5] = second compound 0.000949 µM, first compound 3.16 µM
[6] = second compound 0.000949 µM, first compound 10 µM
[7] = second compound 0.003 µM, first compound 0.0316 µM
[8] = second compound 0.003 µM, first compound 0.1 µM
[9] = second compound 0.003 µM, first compound 0.316 µM
[10] = second compound 0.003 µM, first compound 1 µM
[11] = second compound 0.003 µM, first compound 3.16 µM
[12] = second compound 0.003 µM, first compound 10 µM
[13] = second compound 0.00949 µM, first compound 0.0316 µM
[14] = second compound 0.00949 µM, first compound 0.1 µM
[15] = second compound 0.00949 µM, first compound 0.316 µM
[16] = second compound 0.00949 µM, first compound 1 µM
[17] = second compound 0.00949 µM, first compound 3.16 µM
[18] = second compound 0.00949 µM, first compound 10 µM
[19] = second compound 0.03 µM, first compound 0.0316 µM
[20] = second compound 0.03 µM, first compound 0.1 µM
[21] = second compound 0.03 µM, first compound 0.316 µM
[22] = second compound 0.03 µM, first compound 1 µM
[23] = second compound 0.03 µM, first compound 3.16 µM
[24] = second compound 0.03 µM, first compound 10 µM
[25] = second compound 0.0949 µM, first compound 0.0316 µM
[26] = second compound 0.0949 µM, first compound 0.1 µM
[27] = second compound 0.0949 µM, first compound 0.316 µM
[28] = second compound 0.0949 µM, first compound 1 µM
[29] = second compound 0.0949 µM, first compound 3.16 µM
[30] = second compound 0.0949 µM, first compound 10 µM
[31] = second compound 0.3 µM, first compound 0.0316 µM
[32] = second compound 0.3 µM, first compound 0.1 µM
[33] = second compound 0.3 µM, first compound 0.316 µM
[34] = second compound 0.3 µM, first compound 1 µM
[35] = second compound 0.3 µM, first compound 3.16 µM
[36] = second compound 0.3 µM, first compound 10 µM
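Note: spheroids exposed to agents for seven days before readout.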

`NC1c2ccccc2OC12CCN(c1cnc3c(N4CCCc5ncccc54)n[nH]c3n1)CC2` (stereo unspecified) + CCn1c(-c2cccnc2C(C)OC)c2c3cc(ccc31)N1CCOC(CC(NC(=O)C(C(C)C)N(C)C(=O)C3(F)CCN(C(=O)C#CC(C)(C)N(C)C)CC3)C(=O)N3CCCC(N3)C(=O)OCC(C)(C)C2)C1 was tested, and the IC50 (second compound 0.000949 µM) was less than 31.6 nM, the IC50 (second compound 0.003 µM) was less than 31.6 nM and the IC50 (second compound 0.00949 µM) was less than 31.6 nM. The IC50 (second compound 0.03 µM) was less than 31.6 nM, the IC50 (second compound 0.0949 µM) was less than 31.6 nM and the IC50 (second compound 0.3 µM) was less than 31.6 nM. It also gave a viability, T/C [1] of 13.4%, a viability, T/C [2] of 8.22% and a viability, T/C [3] of 6.07%. For the same compound, the viability, T/C [4] was 6.52%, the viability, T/C [5] was 7.18% and the viability, T/C [6] was 5.23%. The viability, T/C [7] was 5.86%, the viability, T/C [8] was 4.35% and the viability, T/C [9] was 4.13%. It also gave a viability, T/C [10] of 4.19%, a viability, T/C [11] of 4.18% and a viability, T/C [12] of 3.63%. It also gave a viability, T/C [13] of 6.83%, a viability, T/C [14] of 4.56% and a viability, T/C [15] of 3.88%. The viability, T/C [16] was 3.79%, the viability, T/C [17] was 3.72% and the viability, T/C [18] was 4.04%. For the same compound, the viability, T/C [19] was 5.26%, the viability, T/C [20] was 5.42% and the viability, T/C [21] was 4.52%. For the same compound, the viability, T/C [22] was 3.97%, the viability, T/C [23] was 2.82% and the viability, T/C [24] was 3.8%. It also gave a viability, T/C [25] of 6.89%, a viability, T/C [26] of 5.55% and a viability, T/C [27] of 3.94%. It also gave a viability, T/C [28] of 3.94%, a viability, T/C [29] of 2.53% and a viability, T/C [30] of 3.05%. For the same compound, the viability, T/C [31] was 5.95%, the viability, T/C [32] was 4.18% and the viability, T/C [33] was 4.35%. It also gave a viability, T/C [34] of 2.49%, a viability, T/C [35] of 2.46% and a viability, T/C [36] of 2.39%.

In the case of `Cc1nc(N2CCC3(CC2)COC(C)C3N)c(CO)nc1Sc1ccnc(N)c1Cl` (stereo unspecified) + C#Cc1c(F)ccc2cc(O)cc(-c3ncc4c(N5CC6CCC(C5)N6)nc(OCC56CCCN5CC(F)C6)nc4c3F)c12, the IC50 (second compound 0.0316 µM) is reported as 103 nM, the IC50 (second compound 0.1 µM) is reported as 104 nM and the IC50 (second compound 0.316 µM) is reported as 49.5 nM. For the same compound, the IC50 (second compound 1 µM) was less than 31.6 nM, the IC50 (second compound 3.16 µM) was less than 31.6 nM and the IC50 (second compound 10 µM) was less than 31.6 nM. For the same compound, the viability, T/C (second compound 0.0316 µM, first compound 0.0316 µM) was 64.5%, the viability, T/C (second compound 0.0316 µM, first compound 0.1 µM) was 50.2% and the viability, T/C (second compound 0.0316 µM, first compound 0.316 µM) was 33.5%. The viability, T/C (second compound 0.0316 µM, first compound 1 µM) was 22.3%, the viability, T/C (second compound 0.0316 µM, first compound 3.16 µM) was 19% and the viability, T/C (second compound 0.0316 µM, first compound 10 µM) was 17.5%. The viability, T/C (second compound 0.1 µM, first compound 0.0316 µM) was 59.5%, the viability, T/C (second compound 0.1 µM, first compound 0.1 µM) was 51.5% and the viability, T/C (second compound 0.1 µM, first compound 0.316 µM) was 29.6%. The viability, T/C (second compound 0.1 µM, first compound 1 µM) was 20%, the viability, T/C (second compound 0.1 µM, first compound 3.16 µM) was 14.9% and the viability, T/C (second compound 0.1 µM, first compound 10 µM) was 14%. It also gave a viability, T/C (second compound 0.316 µM, first compound 0.0316 µM) of 54.6%, a viability, T/C (second compound 0.316 µM, first compound 0.1 µM) of 42.8% and a viability, T/C (second compound 0.316 µM, first compound 0.316 µM) of 21.3%. The viability, T/C (second compound 0.316 µM, first compound 1 µM) was 13.1%, the viability, T/C (second compound 0.316 µM, first compound 3.16 µM) was 11.4% and the viability, T/C (second compound 0.316 µM, first compound 10 µM) was 10.8%. For the same compound, the viability, T/C (second compound 1 µM, first compound 0.0316 µM) was 41.6%, the viability, T/C (second compound 1 µM, first compound 0.1 µM) was 25.7% and the viability, T/C (second compound 1 µM, first compound 0.316 µM) was 15.7%. For the same compound, the viability, T/C (second compound 1 µM, first compound 1 µM) was 7.73%, the viability, T/C (second compound 1 µM, first compound 3.16 µM) was 8.67% and the viability, T/C (second compound 1 µM, first compound 10 µM) was 8.04%. For the same compound, the viability, T/C (second compound 3.16 µM, first compound 0.0316 µM) was 24.1%, the viability, T/C (second compound 3.16 µM, first compound 0.1 µM) was 13.5% and the viability, T/C (second compound 3.16 µM, first compound 0.316 µM) was 11%. It also gave a viability, T/C (second compound 3.16 µM, first compound 1 µM) of 7.3%, a viability, T/C (second compound 3.16 µM, first compound 3.16 µM) of 6.6% and a viability, T/C (second compound 3.16 µM, first compound 10 µM) of 5.45%. The viability, T/C (second compound 10 µM, first compound 0.0316 µM) was 10.5%, the viability, T/C (second compound 10 µM, first compound 0.1 µM) was 8.85% and the viability, T/C (second compound 10 µM, first compound 0.316 µM) was 6.18%. The viability, T/C (second compound 10 µM, first compound 1 µM) was 5.37%, the viability, T/C (second compound 10 µM, first compound 3.16 µM) was 3.83% and the viability, T/C (second compound 10 µM, first compound 10 µM) was 3.85%.

`CC(C)NCC(C(=O)N1CCN(c2ncnc3c2C(C)CC3O)CC1)c1ccc(Cl)cc1` (stereo unspecified) + CCn1c(-c2cc(N3CCN(C)CC3)cnc2C(C)OC)c2c3cc(ccc31)-c1csc(n1)CC(NC(=O)C1CC1C)C(=O)N1CCCC(N1)C(=O)OCC(C)(C)C2 was tested, and the IC50 (second compound 0.000949 µM) was 43 nM, the IC50 (second compound 0.003 µM) was less than 31.6 nM and the IC50 (second compound 0.00949 µM) was less than 31.6 nM. For the same compound, the IC50 (second compound 0.03 µM) was less than 31.6 nM, the IC50 (second compound 0.0949 µM) was less than 31.6 nM and the IC50 (second compound 0.3 µM) was less than 31.6 nM. The viability, T/C [1] was 52.1%, the viability, T/C [2] was 48.3% and the viability, T/C [3] was 28.8%. The viability, T/C [4] was 31.1%, the viability, T/C [5] was 29% and the viability, T/C [6] was 13.3%. It also gave a viability, T/C [7] of 25%, a viability, T/C [8] of 15.2% and a viability, T/C [9] of 13.7%. It also gave a viability, T/C [10] of 16%, a viability, T/C [11] of 10.4% and a viability, T/C [12] of 3.32%. For the same compound, the viability, T/C [13] was 12.1%, the viability, T/C [14] was 15.4% and the viability, T/C [15] was 6.91%. It also gave a viability, T/C [16] of 4.13%, a viability, T/C [17] of 1.63% and a viability, T/C [18] of 1%. For the same compound, the viability, T/C [19] was 5.32%, the viability, T/C [20] was 4.39% and the viability, T/C [21] was 3.56%. For the same compound, the viability, T/C [22] was 1.38%, the viability, T/C [23] was 0.66% and the viability, T/C [24] was 0.65%. For the same compound, the viability, T/C [25] was 2.69%, the viability, T/C [26] was 3.08% and the viability, T/C [27] was 1.6%. It also gave a viability, T/C [28] of 0.75%, a viability, T/C [29] of 0.62% and a viability, T/C [30] of 0.56%. It also gave a viability, T/C [31] of 2.88%, a viability, T/C [32] of 1.88% and a viability, T/C [33] of 1.86%. The viability, T/C [34] was 0.88%, the viability, T/C [35] was 0.75% and the viability, T/C [36] was 0.84%.
